The results in this text go back to paper PMC5669199, “CM352 Reduces Brain Damage and Improves Functional Recovery in a Rat Model of Intracerebral Hemorrhage” (Journal of the American Heart Association: Cardiovascular …, 2017).

In this test the test system is rat model of collagenase‐induced ICH. The test can be described thus: Hematoma and lesion volume by T2‐weighted MRI in ICH rat model. The class given is in vivo. Here is the method:
Glucose levels were analyzed before surgery (mean 144.3±22.1 mg/dL). Rats were placed in a stereotaxic frame (Stoelting Co, Wood Dale, IL) under sevoflurane anesthesia. After drilling of a small burr hole, 1 μL of saline containing 0.2 U/μL bacterial collagenase type VII (Sigma‐Aldrich Corp, St. Louis, MO) was injected into the right striatum (0.6 mm anterior to bregma, −3.0 mm lateral and 5.5 mm depth) using a Hamilton syringe with a 30 G needle. Injections took place over a 10‐minute period, and the needle remained in place for additional 10 minutes before removal (1 mm/min). The burr hole was filled with bone wax (Ethicon, Somerville, NJ), and the scalp incision was closed with sutures.
. The same experimental design and setting were used to assess the effect of late (3 hours) CM352 treatment. Required sample size was calculated from previous studies using the same model21 in order to be able to detect a 25% effect size on hematoma growth versus controls (2‐tailed t test). Six animals per group are required to detect this difference with a power (1−β) of 0.8 and α=0.05. N was calculated using EPIDAT software (http://www.sergas.es/Saude-publica/EPIDAT-4-2). All treatments were given as a single bolus (jugular) 60 minutes after the collagenase injection for ICH induction. […]
Gradient‐echo pilot scans were performed at the beginning of each imaging session for accurate positioning of the animal inside the magnet bore. Multislice axial T2‐weighted imaging was performed at baseline (1 hour after IHC induction), and at 3 hours, 24 hours, and 14 days after ICH. T2‐weighted images were acquired using a RARE (factor n=4) sequence with the following acquisition parameters: field‐of‐view 19.2×19.2 mm^2, image matrix 192×192 (isotropic in‐plane resolution of 0.1×0.1 mm/pixel), 18 consecutive slices of 0.5 mm thickness.
Magnetic resonance data analysis was performed using Para Vision (Bruker Medical, Ettlingen, Germany), and images were processed with ImageJ (W. S. Rasband, National Institutes of Health, Bethesda, MD: http://rsb.info.nih.gov/ij). The analyzed region of interest was the hematoma and lesion region. Hematoma volumes (basal and 3 and 24 hours) as well as lesion volume at day 14 were manually traced from T2 maps, and the mean signal intensity was measured by 2 well‐trained imaging analysts blind to the experimental conditions.

Setting [1] is: 1 mg/kg 3 hours after collagenase, 5 hours.
[2] abbreviates: 1 mg/kg 3 hours after collagenase, 24 hours.
Where [3] appears, read: 1 mg/kg iv 1 hour after collagenase, 3 hours.
Where [4] appears, read: 1 mg/kg iv 1 hour after collagenase, 24 hours.

For the compound `CNC(=O)c1ccc(Oc2ccc(S(=O)(=O)[C@]3(C(=O)NO)CCC4(CCNCC4)C3)cc2)cc1` [CM352, 4‐[4‐[[(3R)‐3‐(Hydroxycarbamoyl)‐8‐azaspiro[4.5]decan‐3‐yl]sulfonyl]phenoxy]‐N‐methylbenzamide], the hematoma expansion under setting [1] turned out to be 115±17%, the hematoma expansion under setting [2] was found to be 114±50%, the hematoma expansion under setting [3] is on record as 200±86% and the hematoma expansion under setting [4] was found to be 133±63%. For the same compound, the “reduction of hematoma expansion versus control” value was 62% under setting [1], 58% under setting [2], 35% under setting [3] and 56% under setting [4]. The “lesion size versus control” value (1 mg/kg 3 hours after collagenase, up to day 14, P<0.05) is reported as “differences in lesion size were patent between the groups”. For the same compound, the “hematoma volume after late administration” value (1 mg/kg 3 hours after collagenase, versus control P<0.01) is listed as “hematoma stabilized”. The “reduction in hematoma volume compared with controls” value runs as follows: (1 mg/kg iv 1 hour after collagenase, 3 hours after ICH) 29%; (1 mg/kg iv 1 hour after collagenase, 24 hours after ICH) 46%. In addition, the “lesion volume smaller than controls” value (1 mg/kg iv 1 hour after collagenase, 14 days) amounted to 48%. Under “early‐treatment experiment, 1 hour after collagenase, before treatment, n=6”, the “hematoma volume at 1 hour (basal)” value is 23.2±3.5 mm^3. Besides, under “late‐treatment experiment, 1 hour after collagenase, before treatment, n=6”, the “hematoma volume at 1 hour” value came out at 16.0±1.9 mm^3. Besides, the “hematoma volume at 3 hours” value (late‐treatment experiment, 3 hours after collagenase, time of treatment, n=6) was determined as 39.8±6.7 mm^3.
